Test results published in patent US4521538A (Medosan Industrie Biochimiche Riunite S.p.A., priority 1982, dated 1985).
Like-named read-outs stand apart in the source and are kept apart here.

Key:
[1] = Antipyretic activity, yeast-induced hyperthermia; format: in vivo, albino male Wistar rats
Source text: (§1) The composition that had been administered via the oral and/or parenteral route, was in suspension of 0.5% carboxymethylcellulose in neutral pH physiological saline solution.

[2] = format: in vivo, male Wistar rats; details: for % incidence / 10 / gastric damage index / mean No. of lesions / mean severity: four days; for mean severity: scale 0 (no lesion) to 5 (perforations)
Protocol: Male Wistar rats weighing 180 g were randomized into groups of 10. Three doses of each compound were administered. One group received the vehicle alone (10 ml/kg b.w.). Each dose was given orally for four days consecutively and the rats were sacrificed on the fifth day for necropsy. The ulcerogenic effect was evaluated by the following scale:
(1) each haemorrhagic point at least 1 mm in diameter was scored as 1 lesion,
(2) haemorrhagic points less than 1 mm in diameter were scored in the following manner:
(c) 20 to 29=three lesions
(2) gastric mucosal irritation without haemorrhage: 1
(3) haemorrhagic points less than 1 mm in diameter: 2
(4) haemorrhagic points between 1 and 3 mm in diameter: 3
(5) haemorrhagic points larger than 3 mm in diameter: 4
By means of this scale it was possible to obtain the gastric damage index: [formula]

in vivo [3] = details: mouse
healthy animals = assay: General observation of toxic effects in animals at the doses used
Source text: as §1

[4] = Antitussive activity (method of Y. Kase); format: in vivo, albino male Guinea-pigs
Protocol: The antitussive effect on albino male Guinea-pigs weighing 300 g was evaluated using the method described by Y. Kase (Selected Pharmacological Testing Methods, p. 363, Marcel Dekker Inc., New York, 1968).

[5] = Analgesic activity, phenylquinone-induced writhing test; format: in vivo
Protocol: The inhibiting effect on the abdominal contractions induced by phenyl-p-quinone was calculated by the following formula: [formula]
Table II lists the doses, routes of administration and their efficacy expressed as percentage of protection.

[6] = Mucolytic activity in vitro, consistency of human expectoration
Protocol: The experiment was carried out "in vitro" according to the method of R. S. Hirsch (Bull. […] Table IV lists the percentage decrease of the expectoration consistency provoked by the compound of this invention in comparison with dithiothreitol and acetylcysteine which are known mucolytic agents.

[7] = Antiinflammatory activity, carrageenin-induced oedema test; format: in vivo, rats
Protocol: This effect was evaluated by means of an experimental model reproducing acute inflammation in rats: for this purpose the carrageenin-induced oedema test was employed following the method described by C. A. Winter (J. Pharmac. Exp. […] Wong, J. F. Gardocki and T. P. Pruss, J. Pharmac. Exp. Ther. 185 (1): 127, 1973). Table I lists the tested compounds, the concentration thereof, routes of administration and relative percentage oedema inhibitions; the data are commented upon at the end of the Tables.

in vivo [8] = details: rat
Solubility = format: physicochemical

## COc1ccccc1OC(=O)Cc1ccc(C(=O)c2ccc(C)cc2)n1C [1-methyl-5-p-toluoylpyrrole-2-acetic acid guaiacyl ester]
[1]; 50 mg/kg i.p., 1 h
  % temperature decrease: 18.0%
[1]; 50 mg/kg i.p., 2 h
  % temperature decrease: 26.0%
[1]; 50 mg/kg i.p., 3 h
  % temperature decrease: 39.0%
[1]; 50 mg/kg per os, 1 h
  % temperature decrease: 16.0%
[1]; 50 mg/kg per os, 2 h
  % temperature decrease: 20.0%
[1]; 50 mg/kg per os, 3 h
  % temperature decrease: 33.0%
[1]; 75 mg/kg i.p., 1 h
  % temperature decrease: 30.0%
[1]; 75 mg/kg i.p., 2 h
  % temperature decrease: 35.0%
[1]; 75 mg/kg i.p., 3 h
  % temperature decrease: 56.0%
[1]; 75 mg/kg per os, 1 h
  % temperature decrease: 18.0%
[1]; 75 mg/kg per os, 2 h
  % temperature decrease: 27.0%
[1]; 75 mg/kg per os, 3 h
  % temperature decrease: 49.0%
[1]; 100 mg/kg i.p., 1 h
  % temperature decrease: 42.0%
[1]; 100 mg/kg i.p., 2 h
  % temperature decrease: 49.0%
[1]; 100 mg/kg i.p., 3 h
  % temperature decrease: 58.0%
[1]; 100 mg/kg per os, 1 h
  % temperature decrease: 29.0%
[1]; 100 mg/kg per os, 2 h
  % temperature decrease: 35.0%
[1]; 100 mg/kg per os, 3 h
  % temperature decrease: 50.0%
[1]; oral and/or parenteral
  antithermic activity in words: considerable antithermic activity
[2]; 50 mg/kg orally
  % incidence / 10: 7
  gastric damage index: 9
  mean No. of lesions: 1
  mean severity: 1
[2]; 100 mg/kg orally
  % incidence / 10: 8
  gastric damage index: 11
  mean No. of lesions: 1
  mean severity: 2
[2]; 200 mg/kg orally
  % incidence / 10: 8
  gastric damage index: 12
  mean No. of lesions: 2
  mean severity: 2
[2]; number of gastric lesions and their severity (Table VI)
  ulcerogenic effect in words: moderate
[2]; rat, in vivo
  gastrointestinal tolerability: perfectly tolerated by the gastrointestinal tract
In vivo [3]; ip
  LD50: 1200 mg/kg
In vivo [3]; po
  LD50: > 1500 mg/kg
Healthy animals; healthy animals, doses and routes used in the experiments, long- or short-term treatments
  death: did not provoke death
Healthy animals; in vivo
  apparent signs of toxic effects: nor apparent signs of toxic effects
  significant toxic effects: did not provoke significant toxic effects
  therapeutical index: high therapeutical index
[4]; 50 mg/kg i.p.
  % inhibition, amplitude of coughs: 18%
  % inhibition, frequency of coughs: 26%
[4]; 50 mg/kg per os
  % inhibition, amplitude of coughs: 16%
  % inhibition, frequency of coughs: 22%
[4]; 75 mg/kg i.p.
  % inhibition, amplitude of coughs: 25%
  % inhibition, frequency of coughs: 50%
[4]; 75 mg/kg per os
  % inhibition, amplitude of coughs: 19%
  % inhibition, frequency of coughs: 45%
[4]; 100 mg/kg i.p.
  % inhibition, amplitude of coughs: 40%
  % inhibition, frequency of coughs: 55%
[4]; 100 mg/kg per os
  % inhibition, amplitude of coughs: 38%
  % inhibition, frequency of coughs: 56%
[4]; in vivo tests
  antitussive activity in words: good mucolytic and antitussive activity
[5]; 5 mg/kg i.p.
  % protection: 30.0%
[5]; 5 mg/kg per os
  % protection: 30.0%
[5]; 10 mg/kg i.p.
  % protection: 62.5%
[5]; 10 mg/kg per os
  % protection: 58.6%
[5]; 20 mg/kg i.p.
  % protection: 78.0%
[5]; 20 mg/kg per os
  % protection: 79.4%
[5]; oral and/or parenteral
  analgesic action in words: marked analgesic action
[6]; 1.0 M (9%), 12 experiments
  % decrease of expectoration consistency: 52%
[6]; described as in vivo tests
  mucolytic activity in words: good mucolytic and antitussive activity
[7]; 25 mg/kg i.p., 2 h
  Oedema % inhibition: 33.5%
[7]; 25 mg/kg i.p., 4 h
  Oedema % inhibition: 30.0%
[7]; 25 mg/kg i.p., 6 h
  Oedema % inhibition: 25.0%
[7]; 25 mg/kg i.p., 24 h
  Oedema % inhibition: 7.0%
[7]; 25 mg/kg per os, 2 h
  Oedema % inhibition: 27.0%
[7]; 25 mg/kg per os, 4 h
  Oedema % inhibition: 29.0%
[7]; 25 mg/kg per os, 6 h
  Oedema % inhibition: 28.0%
[7]; 25 mg/kg per os, 24 h
  Oedema % inhibition: 3.2%
[7]; 50 mg/kg i.p., 2 h
  Oedema % inhibition: 55.0%
[7]; 50 mg/kg i.p., 4 h
  Oedema % inhibition: 51.6%
[7]; 50 mg/kg i.p., 6 h
  Oedema % inhibition: 49.0%
[7]; 50 mg/kg i.p., 24 h
  Oedema % inhibition: 9.2%
[7]; 50 mg/kg per os, 2 h
  Oedema % inhibition: 49.0%
[7]; 50 mg/kg per os, 4 h
  Oedema % inhibition: 53.0%
[7]; 50 mg/kg per os, 6 h
  Oedema % inhibition: 51.0%
[7]; 50 mg/kg per os, 24 h
  Oedema % inhibition: 5.3%
[7]; 100 mg/kg i.p., 2 h
  Oedema % inhibition: 80.0%
[7]; 100 mg/kg i.p., 4 h
  Oedema % inhibition: 78.0%
[7]; 100 mg/kg i.p., 6 h
  Oedema % inhibition: 70.0%
[7]; 100 mg/kg i.p., 24 h
  Oedema % inhibition: 9.5%
[7]; 100 mg/kg per os, 2 h
  Oedema % inhibition: 71.6%
[7]; 100 mg/kg per os, 4 h
  Oedema % inhibition: 77.8%
[7]; 100 mg/kg per os, 6 h
  Oedema % inhibition: 77.0%
[7]; 100 mg/kg per os, 24 h
  Oedema % inhibition: 7.2%
[7]; oral and/or parenteral
  action against acute inflammation in words: inhibiting action against acute inflammation
In vivo [8]; ip
  LD50: 1180 mg/kg
In vivo [8]; po
  LD50: > 1500 mg/kg
Solubility
  Solubility: soluble in the usual organic solvents
